In patent US9745284B2, “2-pyridyloxy-4-ether orexin receptor antagonists” (MERCK SHARP & DOHME CORP., priority 2013, dated 2017):

Key:
human orexin-2 receptor = human orexin-2 receptor (Homo sapiens (Human), UniProt O43614); assay: FLIPR Ca2+ flux assay, orexin-2 receptor; format: cell-based; settings: CHO cells expressing human orexin-2 receptor; agonist 70 pM Ala-6,12 orexin-A; read-out: hOX2R FLIPR IC50
Description: The utility of the compounds in accordance with the present invention as orexin receptor OX1R and/or OX2R antagonists may be readily determined without undue experimentation by methodology well known in the art, including the “FLIPR Ca^2+ Flux Assay” (Okumura et al., Biochem. Biophys. Res. Comm. 280:976-981, 2001). In a typical experiment the OX1 and OX2 receptor antagonistic activity of the compounds of the present invention was determined in accordance with the following experimental method. For intracellular calcium measurements, Chinese hamster ovary (CHO) cells expressing the rat orexin-1 receptor or the human orexin-2 receptor, are grown in Iscove's modified DMEM containing 2 mM L-glutamine, […], 1% hypoxanthine-thymidine supplement, 100 U/ml penicillin, 100 μg/ml streptomycin and 10% heat-inactivated fetal calf serum (FCS). The cells are seeded at 20,000 cells/well into Becton-Dickinson black 384-well clear bottom sterile plates coated with poly-D-lysine. All reagents were from GIBCO-Invitrogen Corp. The seeded plates are incubated overnight at 37° C. and 5% CO2. Ala-6,12 human orexin-A as the agonist is prepared as a 1 mM stock solution in 1% bovine serum albumin (BSA) and diluted in assay buffer (HBSS containing 20 mM HEPES, 0.1% BSA and 2.5 mM probenecid, pH7.4) for use in the assay at a final concentration of 70 pM. Test compounds are prepared as 10 mM stock solution in DMSO, then diluted in 384-well plates, first in DMSO, then assay buffer. On the day of the assay, cells are washed 3 times with 100 μl assay buffer and then incubated for 60 min (37° C., 5% CO2) in 60 μl assay buffer containing 1 μM Fluo-4AM ester, 0.02% pluronic acid, and 1% BSA. The dye loading solution is then aspirated and cells are washed 3 times with 100 μl assay buffer. 30 μl of that same buffer is left in each well. Within the Fluorescent Imaging Plate Reader (FLIPR, Molecular Devices), test compounds are added to the plate in a volume of 25 μl, incubated for 5 min and finally 25 μl of agonist is added. Fluorescence is measured for each well at 1 second intervals for 5 minutes and the height of each fluorescence peak is compared to the height of the fluorescence peak induced by 70 pM Ala-6,12 orexin-A with buffer in place of antagonist. For each antagonist, IC50 value (the concentration of compound needed to inhibit 50% of the agonist response) is determined. Alternatively, compound potency can be assessed by a radioligand binding assay (described in Bergman et. al. Bioorg. Med. Chem. Lett. 2008, 18, 1425-1430) in which the inhibition constant (Ki) is determined in membranes prepared from CHO cells expressing either the OX1 or OX2 receptor. The intrinsic orexin receptor antagonist activity of a compound which may be used in the present invention may be determined by these assays.

hOX1R = hOX1R (Homo sapiens, UniProt O43613); assay: FLIPR Ca2+ flux assay, orexin-1 receptor; format: cell-based; settings: CHO cells expressing orexin-1 receptor; agonist 70 pM Ala-6,12 orexin-A

Sequence of human orexin-2 receptor (O43614 whole entry): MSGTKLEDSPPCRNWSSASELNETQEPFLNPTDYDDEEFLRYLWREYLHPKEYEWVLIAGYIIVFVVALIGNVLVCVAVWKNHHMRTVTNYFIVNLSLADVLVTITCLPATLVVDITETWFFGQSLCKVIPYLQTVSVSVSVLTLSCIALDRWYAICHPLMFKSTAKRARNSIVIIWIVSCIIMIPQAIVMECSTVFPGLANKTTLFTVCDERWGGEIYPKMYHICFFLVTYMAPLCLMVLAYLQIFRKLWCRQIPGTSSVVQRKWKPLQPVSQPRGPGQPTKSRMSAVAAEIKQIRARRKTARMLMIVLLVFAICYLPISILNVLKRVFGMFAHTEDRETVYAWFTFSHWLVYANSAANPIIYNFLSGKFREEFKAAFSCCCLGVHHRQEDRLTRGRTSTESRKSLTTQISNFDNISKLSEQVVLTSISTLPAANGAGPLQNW

| Compound | IC50 (human orexin-2 receptor) [nM] | IC50 (hOX1R) [nM] |
| --- | --- | --- |
| C[C@@H]1CC[C@@H](Oc2cc(OCC(F)F)ccn2)CN1C(=O)c1ccccc1-n1ncnn1 [Example 29, 4-(2,2-difluoroethoxy)-2-{[(3R,6R)-6-methyl-1-{[2-(2H-tetrazol-2-yl)phenyl]carbonyl}piperidin-3-yl]oxy}pyridine] | 29 | 8070 |
| C[C@@H]1CC[C@@H](Oc2cc(OCC(F)(F)F)ccn2)CN1C(=O)c1ccccc1-n1ncnn1 [Example 30, 2-{[(3R,6R)-6-methyl-1-{[2-(2H-tetrazol-2-yl)phenyl]carbonyl}piperidin-3-yl]oxy}-4-(2,2,2-trifluoroethoxy)pyridine] | 38 | 10000 |
| C[C@@H]1CC[C@@H](Oc2cc(OCC(F)F)ccn2)CN1C(=O)c1ccccc1CS(C)(=O)=O [Example 31, 4-(2,2-difluoroethoxy)-2-{[(3R,6R)-6-methyl-1-({2-[(methylsulfonyl)methyl]phenyl}carbonyl)piperidin-3-yl]oxy}pyridine] | 34 | > 10000 |
| C[C@@H]1CC[C@@H](Oc2cc(OCC(F)F)ccn2)CN1C(=O)c1ccccc1C1(C#N)CC1 [Example 32, 1-(2-{[(2R,5R)-5-{[4-(2,2-difluoroethoxy)pyridin-2-yl]oxy}-2-methylpiperidin-1-yl]carbonyl}phenyl) cyclopropanecarbonitrile] | 24 | 4360 |
| C[C@@H]1CC[C@@H](Oc2cc(OCC(F)F)ccn2)CN1C(=O)c1ncccc1-n1nccn1 [Example 33, 2-{[(2R,5R)-5-{[4-(2,2-difluoroethoxy)pyridin-2-yl]oxy}-2-methylpiperidin-1-yl]carbonyl}-3-(2H-1,2,3-triazol-2-yl)pyridine] | 71 | > 10000 |
| C[C@@H]1CC[C@@H](Oc2cc(OCC(F)F)ccn2)CN1C(=O)c1cccc(F)c1-n1nccn1 [Example 34, 4-(2,2-difluoroethoxy)-2-{[(3R,6R)-1-{[3-fluoro-2-(2H-1,2,3-triazol-2-yl)phenyl]carbonyl}-6-methylpiperidin-3-yl]oxy}pyridine] | 42 | 2140 |
| C[C@@H]1CC[C@@H](Oc2cc(OCC(F)F)ccn2)CN1C(=O)c1ccc(F)cc1-n1nccn1 [Example 35, 4-(2,2-difluoroethoxy)-2-{[(3R,6R)-1-{[4-fluoro-2-(2H-1,2,3-triazol-2-yl)phenyl]carbonyl}-6-methylpiperidin-3-yl]oxy}pyridine] | 62 | 3270 |
| C[C@@H]1CC[C@@H](Oc2cc(OCC(F)F)ccn2)CN1C(=O)c1c(F)cccc1-n1nccn1 [Example 36, 4-(2,2-difluoroethoxy)-2-{[(3R,6R)-1-{[2-fluoro-6-(2H-1,2,3-triazol-2-yl)phenyl]carbonyl}-6-methylpiperidin-3-yl]oxy}pyridine] | 56 | 2970 |
| Cc1noc(-c2ccccc2C(=O)N2C[C@H](Oc3cc(OCC(F)F)ccn3)CC[C@H]2C)n1 [Example 37, 4-(2,2-difluoroethoxy)-2-{[(3R,6R)-6-methyl-1-{[2-(3-methyl-1,2,4-oxadiazol-5-yl)phenyl]carbonyl}piperidin-3-yl]oxy}pyridine] | 52 | 2720 |
| Cc1nc(-c2ccccc2C(=O)N2C[C@H](Oc3cc(OCC(F)F)ccn3)CC[C@H]2C)no1 [Example 38, 4-(2,2-difluoroethoxy)-2-{[(3R,6R)-6-methyl-1-{[2-(5-methyl-1,2,4-oxadiazol-3-yl)phenyl]carbonyl}piperidin-3-yl]oxy}pyridine] | 56 | 2500 |
| C[C@@H]1CC[C@@H](Oc2cc(OC3CC3)ccn2)CN1C(=O)c1ccccc1-n1nccn1 [Example 40, 4-(Cyclopropyloxy)-2-{[(3R,6R)-6-methyl-1-{[2-(2H-1,2,3-triazol-2-yl)phenyl]carbonyl}-piperidin-3-yl]oxy}pyridine] | 15.2 | 581 |
| CC(C)COc1ccnc(O[C@@H]2CC[C@@H](C)N(C(=O)c3ccccc3-n3nccn3)C2)c1 [Example 42, 4-(2-methylpropoxy)-2-{[(3R,6R)-6-methyl-1-{[2-(2H-1,2,3-triazol-2-yl)phenyl]carbonyl}piperidin-3-yl]oxy}pyridine] | 134 | 5610 |
| CCCOc1ccnc(O[C@@H]2CC[C@@H](C)N(C(=O)c3ccccc3-n3nccn3)C2)c1 [Example 43, 2-{[(3R,6R)-6-methyl-1-{[2-(2H-1,2,3-triazol-2-yl)phenyl]carbonyl}piperidin-3-yl]oxy}-4-propoxypyridine] | 38.7 | 2490 |
| CC(C)Oc1ccnc(O[C@@H]2CC[C@@H](C)N(C(=O)c3ccccc3-c3ncccn3)C2)c1 [Example 44, 2-(2-{[(2R,5R)-2-Methyl-5-{[4-(1-methylethoxy)pyridin-2-yl]oxy}piperidin-1-yl]carbonyl}phenyl)pyrimidine] | 67 | 1640 |
| C[C@@H]1CC[C@@H](Oc2cc(OCC(F)F)ccn2)CN1C(=O)c1ccccc1-c1ncccn1 [Example 45, 2-(2-{[(2R,5R)-5-{[4-(2,2-difluoroethoxy)pyridin-2-yl]oxy}-2-methylpiperidin-1-yl]carbonyl}phenyl) pyrimidine] | 33 | 2940 |
| C[C@@H]1CC[C@@H](Oc2cc(OCC(F)F)ccn2)CN1C(=O)c1ccc(F)cc1-c1ncccn1 [Example 46, 2-(2-{[(2R,5R)-5-{[4-(2,2-difluoroethoxy)pyridin-2-yl]oxy}-2-methylpiperidin-1-yl]carbonyl}-5-fluorophenyl)pyrimidine] | 63 | 3520 |
| C[C@@H]1CC[C@@H](Oc2cc(OCC(F)F)ccn2)CN1C(=O)c1ncccc1-c1ncccn1 [Example 47, 2-(2-{[(2R,5R)-5-{[4-(2,2-difluoroethoxy)pyridin-2-yl]oxy}-2-methylpiperidin-1-yl]carbonyl}pyridin-3-yl)pyrimidine] | 84 | 9270 |
| COc1ccnc(O[C@@H]2CC[C@@H](C)N(C(=O)c3ccccc3-n3nccn3)C2)c1C [Example 48, 4-Methoxy-3-methyl-2-{[(3R,6R)-6-methyl-1-{[2-(2H-1,2,3-triazol-2-yl)phenyl]carbonyl}piperidin-3-yl]oxy}pyridine] | 9.7 | 568 |
| COc1ccnc(O[C@@H]2CC[C@@H](C)N(C(=O)c3ccccc3-n3nccn3)C2)c1F [Example 49, 3-Fluoro-4-methoxy-2-{[(3R,6R)-6-methyl-1-{[2-(2H-1,2,3-triazol-2-yl)phenyl]carbonyl}piperidin-3-yl]oxy}pyridine] | 71 | 10000 |
| COc1ccnc(O[C@@H]2CC[C@@H](C)N(C(=O)c3ccccc3-n3nccn3)C2)c1C=O [Example 50, 4-Methoxy-2-{[(3R,6R)-6-methyl-1-{[2-(2H-1,2,3-triazol-2-yl)phenyl]carbonyl}piperidin-3-yl]oxy}pyridine-3-carbaldehyde] | 37.5 | 6750 |
| COc1ccnc(O[C@@H]2CC[C@@H](C)N(C(=O)c3ccccc3-n3nccn3)C2)c1C(C)=O [Example 51, 1-(4-methoxy-2-{[(3R,6R)-6-methyl-1-{[2-(2H-1,2,3-triazol-2-yl)phenyl]carbonyl}piperidin-3-yl]oxy}pyridin-3-yl)ethanone] | 12.3 | 976 |
